From patent publication US20130212744A1, “METHOD OF REDUCING INSECT-VECTORED VIRAL INFECTIONS” (priority 2010, published 2013)
Where two headings read alike, the source gives them in different places.

Experiments:
[1] = system: whitefly Bemisia tabaci nymphs; assay: Foliar use field trial on tomato, efficacy on whitefly nymphs; type: in vivo; conditions: Bemisia tabaci, foliar
Experimental: (§1) Two studies were carried out in Elhasanya, Egypt in 2009 on tomato plants of the variety Fayrouz with the main goal to measure efficacy on the whitefly Bemisia tabaci. The plot size was 4.8 m^2 and 6 replicates were used in the trial. Products were applied 3 times on young tomato plants at BBCH stages 14, 17 and 51 at spray intervals between 12 and 19 days. The spray volume was at the first application 350 l/ha and later 500 l/ha. The evaluation of this study was done counting the adult whiteflies (Bemisia tabaci) as well as the nymphs and the eggs in each plot. In addition to the direct whitefly effect, visual symptoms of the virus, mainly TYLCV (tomato yellow leaf curl virus) were evaluated also.
(§2) ASM=Acibenzolar-S-methyl. WG 50=Actigard® 50WG, a water-dispersible granule with the active ingredient ASM CYNT=Cyantraniliprole. WG 40=Cyazypyr®, a water dispersable granule with the active ingredient CYNT. Results on whitefly adults. Trial 1

[2] = system: whitefly Bemisia tabaci adults; assay: Foliar use field trial on tomato, efficacy on whitefly adults; type: in vivo; conditions: Bemisia tabaci, foliar
Experimental: as §1, §2

CNC(=O)c1cc(C#N)cc(C)c1NC(=O)c1cc(Br)nn1-c1ncccc1Cl [CYNT, 3-bromo-1-(3-chloro-2-pyridyl)-4′-cyano-2′-methyl-6′-(methylcarbamoyl)pyrazole-5-carboxanilide]
Emax ([1]; 75 g ai/hl, 10DAA3, Trial 2, read-out: % Efficacy on Nymphs): 65% | Emax ([1]; 75 g ai/hl, 15DAA3, Trial 1, read-out: % Efficacy on Nymphs): 60% | Emax ([1]; 75 g ai/hl, 15DAA3, Trial 2, read-out: % Efficacy on Nymphs): 60% | Emax ([1]; 75 g ai/hl, 20DAA3, Trial 1, read-out: % Efficacy on Nymphs): 48% | Emax ([1]; 75 g ai/hl, 20DAA3, Trial 2, read-out: % Efficacy on Nymphs): 48% | Emax ([1]; 75 g ai/hl, Avg, Trial 1, read-out: % Efficacy on Nymphs Avg % C): 53% | Emax ([1]; 100 g ai/hl, 5DAA2, Trial 1, read-out: % Efficacy on Nymphs): 73% | Emax ([1]; 100 g ai/hl, 5DAA2, Trial 2, read-out: % Efficacy on Nymphs): 73% | Emax ([1]; 100 g ai/hl, 5DAA3, Trial 1, read-out: % Efficacy on Nymphs): 84% | Emax ([1]; 100 g ai/hl, 5DAA3, Trial 2, read-out: % Efficacy on Nymphs): 84% | Emax ([1]; 100 g ai/hl, 10DAA2, Trial 1, read-out: % Efficacy on Nymphs): 73% | Emax ([1]; 100 g ai/hl, 10DAA2, Trial 2, read-out: % Efficacy on Nymphs): 73% | Emax ([1]; 100 g ai/hl, 10DAA3, Trial 1, read-out: % Efficacy on Nymphs): 78% | Emax ([1]; 100 g ai/hl, 10DAA3, Trial 2, read-out: % Efficacy on Nymphs): 78% | Emax ([1]; 100 g ai/hl, 15DAA3, Trial 1, read-out: % Efficacy on Nymphs): 68% | Emax ([1]; 100 g ai/hl, 15DAA3, Trial 2, read-out: % Efficacy on Nymphs): 68% | Emax ([1]; 100 g ai/hl, 20DAA3, Trial 1, read-out: % Efficacy on Nymphs): 56% | Emax ([1]; 100 g ai/hl, 20DAA3, Trial 2, read-out: % Efficacy on Nymphs): 56% | Emax ([1]; 100 g ai/hl, Avg, Trial 1, read-out: % Efficacy on Nymphs Avg % C): 72% | Emax ([2]; 75 g ai/hl, 5DAA1, Trial 1, read-out: % Efficacy on Adults): 82% | Emax ([2]; 75 g ai/hl, 5DAA1, Trial 2, read-out: % Efficacy on Adults): 82% | Emax ([2]; 75 g ai/hl, 5DAA2, Trial 1, read-out: % Efficacy on Adults): 69% | Emax ([2]; 75 g ai/hl, 5DAA2, Trial 2, read-out: % Efficacy on Adults): 69% | Emax ([2]; 75 g ai/hl, 5DAA3, Trial 1, read-out: % Efficacy on Adults): 83% | Emax ([2]; 75 g ai/hl, 5DAA3, Trial 2, read-out: % Efficacy on Adults): 83% | Emax ([2]; 75 g ai/hl, 10DAA1, Trial 1, read-out: % Efficacy on Adults): 49% | Emax ([2]; 75 g ai/hl, 10DAA1, Trial 2, read-out: % Efficacy on Adults): 49% | Emax ([2]; 75 g ai/hl, 10DAA2, Trial 1, read-out: % Efficacy on Adults): 67% | Emax ([2]; 75 g ai/hl, 10DAA2, Trial 2, read-out: % Efficacy on Adults): 67% | Emax ([2]; 75 g ai/hl, 10DAA3, Trial 1, read-out: % Efficacy on Adults): 79% | Emax ([2]; 75 g ai/hl, 10DAA3, Trial 2, read-out: % Efficacy on Adults): 79% | Emax ([2]; 75 g ai/hl, 15DAA3, Trial 1, read-out: % Efficacy on Adults): 71% | Emax ([2]; 75 g ai/hl, 15DAA3, Trial 2, read-out: % Efficacy on Adults): 71% | Emax ([2]; 75 g ai/hl, 20DAA3, Trial 1, read-out: % Efficacy on Adults): 62% | Emax ([2]; 75 g ai/hl, 20DAA3, Trial 2, read-out: % Efficacy on Adults): 62% | Emax ([2]; 75 g ai/hl, Avg, Trial 1, read-out: % Efficacy on Adults Avg % C): 70% | Emax ([2]; 100 g ai/hl, 5DAA1, Trial 1, read-out: % Efficacy on Adults): 89% | Emax ([2]; 100 g ai/hl, 5DAA1, Trial 2, read-out: % Efficacy on Adults): 89% | Emax ([2]; 100 g ai/hl, 5DAA2, Trial 1, read-out: % Efficacy on Adults): 89% | Emax ([2]; 100 g ai/hl, 5DAA2, Trial 2, read-out: % Efficacy on Adults): 89% | Emax ([2]; 100 g ai/hl, 5DAA3, Trial 1, read-out: % Efficacy on Adults): 90% | Emax ([2]; 100 g ai/hl, 5DAA3, Trial 2, read-out: % Efficacy on Adults): 90% | Emax ([2]; 100 g ai/hl, 10DAA1, Trial 1, read-out: % Efficacy on Adults): 74% | Emax ([2]; 100 g ai/hl, 10DAA1, Trial 2, read-out: % Efficacy on Adults): 74% | Emax ([2]; 100 g ai/hl, 10DAA2, Trial 1, read-out: % Efficacy on Adults): 86% | Emax ([2]; 100 g ai/hl, 10DAA2, Trial 2, read-out: % Efficacy on Adults): 86% | Emax ([2]; 100 g ai/hl, 10DAA3, Trial 1, read-out: % Efficacy on Adults): 86% | Emax ([2]; 100 g ai/hl, 10DAA3, Trial 2, read-out: % Efficacy on Adults): 86% | Emax ([2]; 100 g ai/hl, 15DAA3, Trial 1, read-out: % Efficacy on Adults): 80% | Emax ([2]; 100 g ai/hl, 15DAA3, Trial 2, read-out: % Efficacy on Adults): 80% | Emax ([2]; 100 g ai/hl, 20DAA3, Trial 1, read-out: % Efficacy on Adults): 68% | Emax ([2]; 100 g ai/hl, 20DAA3, Trial 2, read-out: % Efficacy on Adults): 68% | Emax ([2]; 100 g ai/hl, Avg, Trial 1, read-out: % Efficacy on Adults Avg % C): 83%
